Source: ChEMBL document CHEMBL1201862, “PubChem BioAssay data set” (2004)
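96-well plates; 48 h exposure; 5 concentrations. Endpoints by linear interpolation between flanking doses. Not reached: highest tested concentration assigned. Here, GI50 denotes the concentration required for 50% inhibition of growth.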 Calls of active or inactive are those of the source. Cut-off read from the data, not from the text of the source: active = GI50 up to about 1.1 µM and inactive = higher.

What was measured:
Test in all cases: NCI tumour cell line growth inhibition, 48 h
UACC-257 = test system: UACC-257
SK-OV-3 = test system: SK-OV-3
U-251 = test system: U-251
SNB-19 = test system: SNB-19
NCI-H460 = test system: NCI-H460
SF-295 = test system: SF-295
NCI-H522 = test system: NCI-H522
CAKI-1 = test system: CAKI-1
KM12 = test system: KM12
SF-268 = test system: SF-268
SR = test system: SR
HT-29 = test system: HT-29
HL-60 = test system: HL-60
SW-620 = test system: SW-620
UO-31 = test system: UO-31
OVCAR-3 = test system: OVCAR-3
ACHN = test system: ACHN
IGROV-1 = test system: IGROV-1
OVCAR-4 = test system: OVCAR-4
NCI-H226 = test system: NCI-H226

Measured: GI50

CC(OC(C)(C)C)[C@H](NC(=O)OCC(Cl)(Cl)Cl)C(=O)O (stereo partly drawn)
inactive: UACC-257 > 100 µM | SK-OV-3 > 100 µM | U-251 > 100 µM | SNB-19 > 100 µM | NCI-H460 > 100 µM | SF-295 > 100 µM | NCI-H522 > 100 µM | CAKI-1 > 100 µM | KM12 > 100 µM | SF-268 > 100 µM | SR > 100 µM | HT-29 > 100 µM | HL-60 > 100 µM | SW-620 > 100 µM | UO-31 > 100 µM | OVCAR-3 > 100 µM | ACHN > 100 µM | IGROV-1 > 100 µM | OVCAR-4 > 100 µM

COc1ccc2c(c1)CCN=C2Cc1cc(OC)c(OC)cc1CCCl
inactive: UACC-257 45.4 µM | SK-OV-3 > 100 µM | U-251 86.7 µM | SNB-19 97.1 µM | NCI-H460 69.8 µM | SF-295 30.9 µM | NCI-H522 21.7 µM | CAKI-1 > 100 µM | KM12 33.3 µM | SF-268 48.6 µM | SR 94.6 µM | HT-29 26.9 µM | SW-620 > 100 µM | UO-31 29.2 µM | OVCAR-3 22.7 µM | ACHN 57 µM | IGROV-1 52.4 µM | NCI-H226 64.6 µM | OVCAR-4 > 100 µM

O=C1NC2=C(CCCC/C2=N\O)C12CCCCC2
inactive: UACC-257 > 100 µM | SK-OV-3 > 100 µM | U-251 > 100 µM | SNB-19 > 100 µM | NCI-H460 > 100 µM | SF-295 > 100 µM | KM12 > 100 µM | SF-268 > 100 µM | SR 80.9 µM | HT-29 > 100 µM | HL-60 32.7 µM | SW-620 > 100 µM | UO-31 > 100 µM | OVCAR-3 > 100 µM | ACHN > 100 µM | IGROV-1 > 100 µM | NCI-H226 > 100 µM | OVCAR-4 > 100 µM

O=C1ON(Cc2ccccc2)C(c2ccccc2)N1c1ccccc1 (stereo not drawn)
inactive: UACC-257 > 100 µM | SK-OV-3 > 100 µM | U-251 > 100 µM | SNB-19 > 100 µM | NCI-H460 > 100 µM | SF-295 > 64 µM | NCI-H522 > 100 µM | KM12 > 100 µM | SF-268 > 100 µM | HT-29 > 100 µM | HL-60 > 70.5 µM | SW-620 > 100 µM | UO-31 > 100 µM | OVCAR-3 > 100 µM | IGROV-1 > 100 µM | NCI-H226 99.1 µM | OVCAR-4 > 100 µM

COC(=O)c1ccc(/N=N/N(C)COc2ccc([N+](=O)[O-])cc2)cc1
inactive: UACC-257 > 100 µM | SK-OV-3 > 100 µM | U-251 > 100 µM | SNB-19 > 100 µM | NCI-H460 15.5 µM | SF-295 > 77.4 µM | NCI-H522 > 100 µM | KM12 81.8 µM | SF-268 > 78.2 µM | HT-29 > 94 µM | HL-60 21.8 µM | SW-620 64.7 µM | UO-31 > 100 µM | OVCAR-3 > 100 µM | IGROV-1 > 100 µM | NCI-H226 > 100 µM | OVCAR-4 > 100 µM

O=NN1C(c2ccccc2)CCCC1c1ccccc1 (stereo not drawn)
inactive: UACC-257 72.1 µM | SK-OV-3 31.9 µM | U-251 75.5 µM | SNB-19 > 100 µM | NCI-H460 43.9 µM | SF-295 22.1 µM | NCI-H522 23.4 µM | CAKI-1 97.7 µM | KM12 > 89.9 µM | SF-268 > 100 µM | HT-29 22.9 µM | HL-60 26.8 µM | SW-620 > 92.7 µM | UO-31 42.4 µM | OVCAR-3 > 41.8 µM | IGROV-1 > 89.7 µM | NCI-H226 > 100 µM | OVCAR-4 35.9 µM

C=CCN1/C(=C(\C#N)c2nc3ccccc3[nH]2)Sc2c1nc[nH]c2=O
inactive: UACC-257 > 100 µM | SK-OV-3 > 100 µM | U-251 80.5 µM | SNB-19 > 100 µM | NCI-H460 > 100 µM | SF-295 > 100 µM | NCI-H522 > 100 µM | CAKI-1 > 100 µM | KM12 > 100 µM | SF-268 > 100 µM | SR > 100 µM | HT-29 > 100 µM | HL-60 > 100 µM | SW-620 > 100 µM | UO-31 > 100 µM | OVCAR-3 > 100 µM | ACHN > 100 µM | IGROV-1 > 100 µM | OVCAR-4 > 100 µM

O=C1C(Cl)N(c2cccc(Cl)c2)C1c1c[nH]c2ccccc12 (stereo not drawn)
inactive: UACC-257 > 100 µM | SK-OV-3 > 100 µM | U-251 > 100 µM | SNB-19 > 100 µM | NCI-H460 > 100 µM | SF-295 > 100 µM | NCI-H522 > 100 µM | KM12 > 100 µM | SF-268 > 100 µM | SR > 100 µM | HT-29 > 100 µM | HL-60 > 100 µM | SW-620 > 100 µM | UO-31 > 100 µM | OVCAR-3 > 100 µM | IGROV-1 > 100 µM | OVCAR-4 > 100 µM

Cc1ccc(Nc2n[nH]c(NS(=O)(=O)c3cc(C(=O)Nc4ccc(Cl)cc4)c(Cl)cc3S)n2)cc1
inactive: UACC-257 > 100 µM | SK-OV-3 > 100 µM | U-251 54.8 µM | SNB-19 > 100 µM | NCI-H460 36 µM | SF-295 > 100 µM | CAKI-1 > 100 µM | KM12 > 100 µM | SF-268 > 100 µM | SR > 100 µM | HT-29 89.9 µM | HL-60 33.7 µM | SW-620 > 100 µM | UO-31 > 100 µM | OVCAR-3 > 100 µM | ACHN > 100 µM | IGROV-1 > 100 µM | OVCAR-4 > 100 µM

COC(=O)C12CC3CC(CC(C(=O)O)(C3)C1)C2
inactive: UACC-257 > 100 µM | SK-OV-3 > 100 µM | U-251 > 100 µM | SNB-19 > 100 µM | NCI-H460 > 100 µM | SF-295 > 100 µM | NCI-H522 > 100 µM | CAKI-1 > 100 µM | KM12 > 100 µM | SF-268 > 100 µM | SR > 100 µM | HT-29 > 100 µM | HL-60 > 100 µM | SW-620 > 100 µM | UO-31 > 100 µM | OVCAR-3 > 100 µM | ACHN > 100 µM | IGROV-1 > 100 µM | OVCAR-4 > 100 µM

CC(=O)O[C@]12CCCCCC1C1(O)C(O)CCCC[C@H]12 (stereo partly drawn)
inactive: UACC-257 > 100 µM | SK-OV-3 > 100 µM | U-251 > 100 µM | SNB-19 > 100 µM | NCI-H460 > 100 µM | SF-295 > 100 µM | NCI-H522 > 100 µM | KM12 > 100 µM | SF-268 > 100 µM | SR > 100 µM | HT-29 > 100 µM | HL-60 > 100 µM | SW-620 > 100 µM | UO-31 > 100 µM | ACHN > 100 µM | NCI-H226 > 100 µM | OVCAR-4 > 100 µM
